Legend:
Assay in all cases: Antibacterial and antifungal activity, paper disc method
Type in all cases: cell-based
[1] = test system: Candida albicans IFO-0583; settings: IFO0583, paper disc d=8 mm dipped in 1,000 µg/ml solution, YNB agar medium, read-out: diameter of the growth inhibition circle, Can.(IFO-0583)
Method: (§1) Antibacterial and antifungal activity tests for various bacteria and fungi were conducted. The tests were carried out by the conventional paper disc method. That is, a paper disc (d=8 mm) was dipped in aqueous or methanol solution of the compound of the present invention (concentration : 1,000 µg/ml), then dried and used.
(§2) As bacteria to be tested, • ① Staphylococcus aureus IFO-12732 [hereinafter abbreviated to Sta.] • ② Bacillus subtilis IFO-13719 [Bac.] • ③ Escherichia coli IFO-3301 [Esc.] were used. As yeast to be tested, • ④ Saccharomyces cerevisiae IFO-0210 [Sac.] • ⑤ Candida albicans IFO-0583 [Can.] were used. As fungi to be tested, • ⑥ Aspergillus niger IFO-4407 [Asp.] • ⑦ Penicillium citrinum IFO-7784 [Pen.] • ⑧ Tyromyces palustris IFO-30339 [Tyr.] • ⑨ Coriolus versicolor IFO-30340 [Cor.] were used. Among the above fungi, Tyr. and Cor. are wood rot fungi.
(§3) As the test media, agar media shown below were used. That is, TSA (Trypticase Soy Agar) medium was used for Sta., Bac. and Esc.; YNB (Yeast Nitrogen Base) agar medium was used for Sac. and Can.; SDA (Sabouraud Dextrose Agar) medium was used for Asp. and Pen.; and PDA (Potato Dextrose Agar) medium was used for Try. and Cor.
(§4) The determination of antibacterial and antifungal effectiveness was carried out by measuring the diameter of the growth inhibition circle generated on the circumference of the paper disc. The indication of effectiveness is given as follows: -: no growth inhibition circle was observed. +: diameter of the growth inhibition circle was 9 - 20 mm ++: diameter of the growth inhibition circle was 21 - 40 mm +++: diameter of the growth inhibition circle was 41 mm or more

[2] = test system: Bacillus subtilis IFO-13719; settings: paper disc d=8 mm dipped in 1,000 µg/ml solution, TSA medium; for zone of inhibition at 1000 µg/mL: Bacillus subtilis, IFO13719, read-out: diameter of the growth inhibition circle, Bac.(IFO-13719)
Method: as §1, §2, §3, §4

[3] = test system: Saccharomyces cerevisiae IFO-0210; settings: IFO0210, paper disc d=8 mm dipped in 1,000 µg/ml solution, YNB agar medium, read-out: diameter of the growth inhibition circle, Sac.(IFO-0210)
Method: as §1, §2, §3, §4

[4] = test system: Escherichia coli IFO-3301; settings: paper disc d=8 mm dipped in 1,000 µg/ml solution, TSA medium; for zone of inhibition at 1000 µg/mL: Escherichia coli, IFO3301, read-out: diameter of the growth inhibition circle, Esc.(IFO-3301)
Method: as §1, §2, §3, §4

[5] = test system: Tyromyces palustris IFO-30339; settings: paper disc d=8 mm dipped in 1,000 µg/ml solution; PDA medium; read-out: diameter of the growth inhibition circle, Tyr.(IFO-30339)
Method: as §1, §2, §3, §4

[6] = test system: Aspergillus niger IFO-4407; settings: IFO4407, paper disc d=8 mm dipped in 1,000 µg/ml solution, SDA medium, read-out: diameter of the growth inhibition circle, Asp.(IFO-4407)
Method: as §1, §2, §3, §4

[7] = test system: Coriolus versicolor IFO-30340; settings: Trametes versicolor, IFO30340; paper disc d=8 mm dipped in 1,000 µg/ml solution; PDA medium; read-out: diameter of the growth inhibition circle, Cor.(IFO-30340)
Method: as §1, §2, §3, §4

[8] = test system: Penicillium citrinum IFO-7784; settings: IFO7784, paper disc d=8 mm dipped in 1,000 µg/ml solution, SDA medium, read-out: diameter of the growth inhibition circle, Pen.(IFO-7784)
Method: as §1, §2, §3, §4

[9] = test system: Staphylococcus aureus IFO-12732; settings: IFO12732, paper disc d=8 mm dipped in 1,000 µg/ml solution, TSA medium, read-out: diameter of the growth inhibition circle, Sta.(IFO-12732)
Method: as §1, §2, §3, §4

Row | Structure (SMILES) | zone of inhibition at 1000 µg/mL [1] | zone of inhibition at 1000 µg/mL [2] | zone of inhibition at 1000 µg/mL [3] | zone of inhibition at 1000 µg/mL [4] | zone of inhibition at 1000 µg/mL [5] | zone of inhibition at 1000 µg/mL [6] | zone of inhibition at 1000 µg/mL [7] | zone of inhibition at 1000 µg/mL [8] | zone of inhibition at 1000 µg/mL [9] | diameter of the growth inhibition circle, Esc.(IFO-3301) [4] | diameter of the growth inhibition circle, Bac.(IFO-13719) [2]
1 | CC(C)(C)NC(=O)C#CI [Example 1, N-(tert-Butyl)-3-iodopropiolamide] | 21 to 40 mm | 9 to 20 mm | 21 to 40 mm | 9 to 20 mm | > 41 mm | 21 to 40 mm | > 41 mm | > 41 mm | 9 to 20 mm |  | 
2 | CCCCCCCCCCNC(=O)C#CI [Example 2, N-(n-Decyl)-3-iodopropiolamide] | 9 to 20 mm | 9 to 20 mm | 9 to 20 mm |  | 9 to 20 mm | 9 to 20 mm | 21 to 40 mm | 9 to 20 mm | 9 to 20 mm | - | 
3 | CCCCNC(=O)C#CI [Example 4, N-(n-Butyl)-3-iodopropiolamide] | 21 to 40 mm | 9 to 20 mm | 21 to 40 mm | 9 to 20 mm | > 41 mm | 21 to 40 mm | > 41 mm | > 41 mm | 21 to 40 mm |  | 
4 | CCC(C)NC(=O)C#CI (stereo not drawn) [Example 5, N-(sec-Butyl)-3-iodopropiolamide] | 21 to 40 mm | 9 to 20 mm | 21 to 40 mm | 9 to 20 mm | > 41 mm | 21 to 40 mm | > 41 mm | > 41 mm | 21 to 40 mm |  | 
5 | CC(C)CNC(=O)C#CI [Example 6, N-Isobutyl-3-iodopropiolamide] | 21 to 40 mm | 21 to 40 mm | 21 to 40 mm |  | > 41 mm | 21 to 40 mm | 21 to 40 mm | 21 to 40 mm | 21 to 40 mm | - | 
6 | CCCCCNC(=O)C#CI [Example 7, N-(n-Pentyl)-3-iodopropiolamide] | 21 to 40 mm | 9 to 20 mm | 21 to 40 mm | 9 to 20 mm | > 41 mm | 21 to 40 mm | > 41 mm | > 41 mm | 21 to 40 mm |  | 
7 | CCCCCCNC(=O)C#CI [Example 8, N-(n-Hexyl)-3-iodopropiolamide] | 21 to 40 mm | 9 to 20 mm | 21 to 40 mm | 9 to 20 mm | > 41 mm | 21 to 40 mm | > 41 mm | > 41 mm | 21 to 40 mm |  | 
8 | CCCCCCCNC(=O)C#CI [Example 9, N-(n-Heptyl)-3-iodopropiolamide] | 21 to 40 mm | 9 to 20 mm | 21 to 40 mm |  | > 41 mm | 21 to 40 mm | > 41 mm | > 41 mm | 9 to 20 mm | - | 
9 | CCCCCCCCNC(=O)C#CI [Example 10, N-(n-Octyl)-3-iodopropiolamide] | 21 to 40 mm |  | 21 to 40 mm |  | 21 to 40 mm | 9 to 20 mm | > 41 mm | 21 to 40 mm | 9 to 20 mm | - | -
10 | CCCCCCCCCNC(=O)C#CI [Example 11, N-(n-Nonyl)-3-iodopropiolamide] | 9 to 20 mm |  | 9 to 20 mm |  | 21 to 40 mm | 9 to 20 mm | > 41 mm | 21 to 40 mm | 9 to 20 mm | - | -

— patent EP0519427A2, “N-substituted-3-iodopropiolamide, production and use thereof” (priority 1991, dated 1992)
